Entries after “also recorded” stand apart in the source; their conditions may differ. Bounds are passed on as bounds.

The source of these data is article PMC10545732, “Structure-based drug discovery of a corticotropin-releasing hormone receptor 1 antagonist using an X-ray free-electron laser” (Experimental & Molecular Medicine, 2023).

For one series, the system named is ACTH serum levels. Description: Serum ACTH level after TST (ELISA). The series is classed as in vivo, mice. The following applies: 30 mg/kg orally for 3 days, immediately after TST. The method, then: The mice were anesthetized via intraperitoneal injections of 2,2,2-tribromoethanol (300 mg/kg, Sigma-Aldrich) immediately after the TST and before blood from the heart was sampled. Blood samples were collected in plastic tubes and incubated at room temperature for at least 2 h. The sera were extracted after centrifugation at 13,000×g for 10 min at 4 °C. CORT levels were determined via LC‒MS analysis. Serum (10 µL) was mixed with 20 μL of an internal standard solution (d4-cortisol) to prepare the samples. Subsequently, 100 μL of acetonitrile was added, and the mixture was centrifuged at 16,000×g for 10 min for protein precipitation. The supernatants (60 μL) were transferred into an autosampler vial, and 30 μL of water was added for efficient separation via high-performance liquid chromatography (HPLC). LC‒MS was performed with a triple quadrupole mass spectrometer coupled with HPLC using a C18 reversed-phase column. CORT levels were determined using a calibration curve constructed using CORT-spiked mouse serum. Serum samples (20 μL) were analyzed using a commercially available ELISA kit for ACTH (ab263880, Abcam) to measure ACTH serum levels.

Another series addresses CYP3A4 (Homo sapiens, UniProt P08684). Description: CYP inhibition assay CYP3A4 (midazolam 1'-hydroxylase). The following applies: 10 μM, human liver microsomes, n = 3.
The test system of another series is C57BL/6J mice. The experiment in a line: Tail suspension test (TST). The series is classed as in vivo. The following applies: 30 mg/kg orally for 3 days, test 2 h after third dose, last 4 min of 6 min. The method, then:
C57BL/6J mice (male, 9–10 weeks old) were used for the behavioral tests. All mice were maintained under a 12:12-h light–dark cycle (lights on at 7:00 A.M.) with access to food and water ad libitum. Animal care and handling were performed according to guidelines by the Institutional Animal Care and Use Committee of Yonsei University (Seoul, Korea). Antalarmin, BMK-C203, and BMK-C205 were dissolved in peceol: TPGS: PEG400 (vehicle) (70%:20%:10%, respectively) and administered orally at a dose of 30 mg/kg for 3 days at 24-h intervals. All behavioral tests were conducted 2 h after the third drug was administered during light periods of the circadian cycle. TSTs were performed to verify the effect of CRF1R antagonists on depressive-like behavior. Each mouse was suspended by its tail on a bar 30 cm above the ground for 6 min using adhesive tape. Their movements were recorded by a camera and analyzed using the same parameters via EthoVision XT 8.5 software (Noldus Technologies). Immobility times during the last 4 min of the task were measured. Each mouse was placed in an open field (40 cm × 40 cm × 40 cm chamber) for 1 h to conduct an open field test (OFT) and test locomotion. Their locomotion was recorded and analyzed using EthoVision XT 8.5.

The target in another series is CYP2D6 (Homo sapiens, UniProt P10635). The experiment in a line: CYP inhibition assay CYP2D6 (dextromethorphan O-demethylase). To be noted: 10 μM, human liver microsomes, n = 3.
Sequence of CYP2D6 (P10635 whole entry): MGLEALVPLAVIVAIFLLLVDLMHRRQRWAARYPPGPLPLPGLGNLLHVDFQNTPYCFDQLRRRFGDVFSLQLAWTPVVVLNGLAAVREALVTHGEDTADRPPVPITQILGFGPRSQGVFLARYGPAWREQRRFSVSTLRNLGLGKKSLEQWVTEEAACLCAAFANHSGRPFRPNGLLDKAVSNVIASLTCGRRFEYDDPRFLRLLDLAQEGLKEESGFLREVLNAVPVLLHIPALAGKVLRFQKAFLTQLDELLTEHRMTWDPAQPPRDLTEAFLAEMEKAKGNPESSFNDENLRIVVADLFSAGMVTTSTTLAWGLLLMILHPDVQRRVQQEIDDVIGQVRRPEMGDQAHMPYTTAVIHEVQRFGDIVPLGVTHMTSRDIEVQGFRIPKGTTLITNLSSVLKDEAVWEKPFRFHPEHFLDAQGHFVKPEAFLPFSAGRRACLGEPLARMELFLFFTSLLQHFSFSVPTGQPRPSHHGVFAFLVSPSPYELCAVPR
The target of the next series is T1, CYP1A2 (Homo sapiens, UniProt P05177).
T1 construct: 0.25 mg/mL human liver microsomes; from tissue; host or cells: human liver microsomes
T1 sequence (P05177 1-516): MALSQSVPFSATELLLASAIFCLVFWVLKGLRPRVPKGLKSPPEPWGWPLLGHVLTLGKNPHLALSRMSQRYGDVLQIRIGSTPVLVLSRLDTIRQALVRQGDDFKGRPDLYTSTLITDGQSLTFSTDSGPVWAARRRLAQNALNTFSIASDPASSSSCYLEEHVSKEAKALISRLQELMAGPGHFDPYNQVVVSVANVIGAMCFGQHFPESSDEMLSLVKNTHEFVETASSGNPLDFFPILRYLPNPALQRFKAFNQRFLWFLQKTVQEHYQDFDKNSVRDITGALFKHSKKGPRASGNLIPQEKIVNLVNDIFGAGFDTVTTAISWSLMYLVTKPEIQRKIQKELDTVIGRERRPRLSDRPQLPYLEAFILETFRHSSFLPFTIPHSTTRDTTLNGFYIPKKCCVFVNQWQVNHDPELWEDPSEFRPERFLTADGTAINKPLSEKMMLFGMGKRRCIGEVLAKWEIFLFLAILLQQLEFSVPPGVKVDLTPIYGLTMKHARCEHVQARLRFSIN
The experiment in a line: CYP inhibition assay CYP1A2 (phenacetin O-demethylase). The series is classed as in vitro ADME. The following applies: 10 μM, human liver microsomes, n = 3. (Microsomes from liver hold many membrane-bound enzymes, among them those of drug oxidation.)

The target in another series is T2, CYP2C9 (Homo sapiens, UniProt P11712).
T2 construct: 0.25 mg/mL human liver microsomes; from tissue; host or cells: human liver microsomes
T2 sequence (P11712 whole entry): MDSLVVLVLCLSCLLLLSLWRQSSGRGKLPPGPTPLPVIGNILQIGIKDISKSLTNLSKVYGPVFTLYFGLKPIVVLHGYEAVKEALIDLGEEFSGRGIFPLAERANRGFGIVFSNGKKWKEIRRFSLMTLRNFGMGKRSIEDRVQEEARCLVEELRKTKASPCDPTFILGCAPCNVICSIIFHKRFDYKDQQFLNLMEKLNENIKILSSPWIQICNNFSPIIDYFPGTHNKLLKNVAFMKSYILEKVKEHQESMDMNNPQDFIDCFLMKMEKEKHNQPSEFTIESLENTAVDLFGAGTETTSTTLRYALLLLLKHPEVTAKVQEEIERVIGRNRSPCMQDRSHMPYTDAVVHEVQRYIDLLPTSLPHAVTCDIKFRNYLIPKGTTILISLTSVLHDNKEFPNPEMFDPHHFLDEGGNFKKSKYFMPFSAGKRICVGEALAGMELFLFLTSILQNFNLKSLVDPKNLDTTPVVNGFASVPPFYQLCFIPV
The experiment in a line: CYP inhibition assay CYP2C9 (diclofenac 4-hydroxylase). The series is classed as in vitro ADME. The following applies: 10 μM, human liver microsomes, n = 3.

The nature of another series: PK studies in rats. The series is classed as in vivo, SD rats. The following applies: for AUC(0-t) / half-life / Cmax / Tmax / bioavailability: male, Sprague-Dawley, rat, plasma, SD rats, n = 3. The method, then: CRF1R antagonist PKs were studied in naïve male SD rats following a single i.v. bolus injection or p.o. gavage. The i.v. injections used Antalarmin, BMK-C203, or BMK-C205 at doses of 5 mg/kg and BMK-I-152 at a dose of 1 mg/kg. The antagonist’s doses in the p.o. injection was 10 mg/kg. Three male SD rats weighing between 220 and 260 g were used to evaluate CRF1R antagonist PKs. The vehicle used for all dose groups was […]: TPGS: PEG400 (70%:20%:10%). Blood samples were collected from all treatment groups at 0 h (predose), 0.083, 0.25, 0.5, 1, 2, 4, 6, 8, and 24 h after dosing. Antalarmin, BMK-I-152, BMK-C203, and BMK-C205 concentrations in the plasma samples were determined via LC‒MS/MS (LLOQ was 1 ng/mL for CRF1R antagonists). PK parameter estimates were determined using the serial time-course profiles for plasma concentrations of three male rats per group via noncompartmental analysis using commercially available software (Phoenix WinNonlin, version 8.1, Pharsight Corporation, Mountain View, CA).

Sequence of CYP3A4 (P08684 whole entry): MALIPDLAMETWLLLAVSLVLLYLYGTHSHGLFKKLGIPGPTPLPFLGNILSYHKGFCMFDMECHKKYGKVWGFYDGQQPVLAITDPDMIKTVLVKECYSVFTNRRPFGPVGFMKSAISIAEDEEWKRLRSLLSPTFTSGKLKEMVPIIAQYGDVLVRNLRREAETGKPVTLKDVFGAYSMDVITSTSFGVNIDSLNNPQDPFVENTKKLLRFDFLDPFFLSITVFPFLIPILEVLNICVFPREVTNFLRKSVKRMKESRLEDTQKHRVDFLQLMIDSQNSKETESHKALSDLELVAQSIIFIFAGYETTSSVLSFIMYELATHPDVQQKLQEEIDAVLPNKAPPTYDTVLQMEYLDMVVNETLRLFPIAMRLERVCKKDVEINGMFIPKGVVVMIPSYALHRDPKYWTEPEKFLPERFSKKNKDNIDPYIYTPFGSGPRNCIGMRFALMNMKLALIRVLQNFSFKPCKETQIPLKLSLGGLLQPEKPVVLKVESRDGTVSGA
Experimental for CYP1A2: (§1) Phenacetin O-demethylase, diclofenac 4-hydroxylase, S-mephenytoin 4-hydroxylase, dextromethorphan O-demethylase, and midazolam 1’-hydroxylase activities were determined as probe activities for CYP1A2, CYP2C9, CYP2C19, CYP2D6, and CYP3A4, respectively, using cocktail incubation. […] The cocktail incubation mixtures consisted of 0.25 mg/mL human liver microsomes, 0.1 M phosphate buffer (pH 7.4), an NADPH regeneration system, and inhibitors (CRF1R antagonist compounds, 10 µM) in a total volume of 100 μL. The final volume of the organic solvents in the incubation mixture was 1% (v/v). […] All incubations were performed in triplicate, and the mean values were used for analysis. The samples were then centrifuged at 15,000 rpm for 5 min at 4 °C. […] The CYP-mediated activities in the presence of inhibitors were expressed as percentages of the corresponding control values.
Experimental for CYP2C9: as §1
Experimental for CYP2D6: as §1
Experimental for CYP3A4: as §1

One may read the AUC(0-t) as exposure summed from dosing to a finite time, without extrapolation to infinity. A word on the half-life: it is the time in which the quantity being followed falls by half. A lower half-life goes with rapid decline. The Cmax is the peak of the concentration-time curve. The term Tmax denotes the time at which the peak concentration occurs. The bioavailability is dose-corrected exposure relative to a reference, in per cent. In the case of `COc1cc(Br)cc(OC)c1-c1c(C)nn2c(N(CCCC(F)(F)F)CCCC(F)(F)F)nc(C)nc12` [BMK-C203], the “serum ACTH level versus vehicle” value in the series with ACTH serum levels is given as “decreased; also recorded: lower than those in the vehicle group; also recorded: significantly affected”. Further, the “CYP3A4, percentage of control activity” value on CYP3A4 is listed as 90.5 ± 2.9 percentage of control activity. Further, in the series with C57BL/6J mice, the “TST immobility time versus vehicle” value is given as “did not significantly affect”. Besides, on CYP2D6, the “CYP2D6, percentage of control activity” value was > 100 ± 4.0 percentage of control activity. Moreover, the “CYP1A2, percentage of control activity” value at CYP1A2 is given as 95.6 ± 2.9 percentage of control activity. Also, on CYP2C9, the “CYP2C9, percentage of control activity” value is 94.9 ± 1.9 percentage of control activity. In the series “PK studies in rats” (iv, I.V, 5 mg/kg), this molecule showed an AUC(0-t) of 20600 ng·h/mL and a half-life of 286 min. Also, in the series “PK studies in rats” (po, P.O, 10 mg/kg), the exposure AUC(0-t) was 16100 ng·h/mL, the Cmax was found to be 1370 ng/mL, the Tmax was determined as 4.67 h and the bioavailability was found to be 39.5%. Besides, the half-life in the series “PK studies in rats” (po, P.O, 10 mg/kg) was 253 min.

In the case of `CCCCN(CC1CC1)c1nc(C)nc2c(-c3c(OC)cc(Br)cc3OC)c(C)nn12` [BMK-C205], the “serum ACTH level versus vehicle” value in the series with ACTH serum levels was “decreased; also recorded: lower than those in the vehicle group”. In addition, on CYP3A4, the “CYP3A4, percentage of control activity” value was > 100 ± 6.2 percentage of control activity. For the same molecule, the “TST immobility time versus vehicle” value in the series on C57BL/6J mice was “significantly decreased; also recorded: more mobile than the vehicle group”. For the same molecule, the “CYP2D6, percentage of control activity” value on CYP2D6 is > 100 ± 3.8 percentage of control activity. Also, the “CYP1A2, percentage of control activity” value at CYP1A2 is reported as > 100 ± 4.2 percentage of control activity. In addition, the “CYP2C9, percentage of control activity” value on CYP2C9 is on record as 89.8 ± 2.4 percentage of control activity. For the same molecule, the “serum concentration relative to BMK-C203” value in the series “PK studies in rats” (2 h after oral administration in the PK test) is on record as “twice as high”. In the series “PK studies in rats” (iv, I.V, 5 mg/kg), the area under the curve AUC(0-t) stood at 22900 ng·h/mL and the half-life is 390 min. Also, in the series “PK studies in rats” (po, P.O, 10 mg/kg), the exposure AUC(0-t) worked out at 9880 ng·h/mL, the Cmax came to 2400 ng/mL, the Tmax came to 2 h and the bioavailability was 21.6%. In the series “PK studies in rats” (po, P.O, 10 mg/kg), this molecule showed a half-life of 232 min.
